The values that follow are results of earlier work, collected in patent publication US20030162721A1, “PHARMACEUTICAL COMPOSITION CONTAINING PEPTICHEMIO” (priority 1997, published 2003).

The subject of this data set is RPMI 8322 melanoma cells.

On to “L-prolyl-m-sarcolysyl-L-p-fluorophenylalanine [PSF]”, for which, under “relative to m-sarcolysine”, the “times more toxic than m-sarcolysine” value was 28 times. Moreover, the “times more toxic than melphalan” value (relative to melphalan) is recorded as 35 times.
